Experimental data as given in publication PMC7191645 (Molecular Metabolism, 2020).

Target: β3-adrenoceptor (β3-AR) (Mus musculus, UniProt P25962)
Test: Epac1-camps FRET cAMP concentration-response in mature murine brown adipocytes
Assay type: cell-based

β3-adrenoceptor (β3-AR), sequence (P25962 whole entry): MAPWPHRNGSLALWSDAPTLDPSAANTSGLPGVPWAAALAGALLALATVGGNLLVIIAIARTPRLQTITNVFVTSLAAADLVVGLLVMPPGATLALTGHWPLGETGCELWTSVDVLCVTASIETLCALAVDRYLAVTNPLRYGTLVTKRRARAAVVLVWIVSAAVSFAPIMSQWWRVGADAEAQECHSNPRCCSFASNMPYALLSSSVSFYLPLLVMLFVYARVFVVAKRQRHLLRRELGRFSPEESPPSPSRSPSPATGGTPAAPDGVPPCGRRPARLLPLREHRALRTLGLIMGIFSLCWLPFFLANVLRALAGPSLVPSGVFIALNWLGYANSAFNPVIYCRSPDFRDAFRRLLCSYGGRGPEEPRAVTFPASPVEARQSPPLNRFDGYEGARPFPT

## C[C@H](Cc1ccc2c(c1)OC(C(=O)O)(C(=O)O)O2)NC[C@H](O)c1cccc(Cl)c1 [CL, CL 316,243]
  EC50: 7.8 µM
